{
  "source": "patent US20240083946A1",
  "about": "“SELF-ASSEMBLING PEPTIDES, NANOFIBERS, AND METHODS OF USE” (The Board of Regents of the University of Oklahoma, priority 2021, published 2024)",
  "system": "OVCAR-8 ovarian cancer cells",
  "experiment": "Toxicity of peptide sets and individual peptides to OVCAR-8 cells (relative ATP, live/dead imaging)",
  "assay_type": "cell-based",
  "conditions": "6 hours, FIGS. 6A-B",
  "protocol": "Image analysis indicated green cells were living and red cells were dead (color not shown).\nIncubation of the peptides with OVCAR-8 ovarian cancer cells were incubated with the peptides of the [AA], [II], [WW] peptide sets. […] Red fluorescence (ethidium homodimer-1) was associated with loss of plasma membrane integrity whereas the green fluorescence correlated with intracellular esterase activity of metabolically active cells (color not shown in figures). Pyroptosis is a newly identified cell death modality characterized by the formation of large bubbles on the plasma membrane and cell swelling. Recently pyroptosis has been classified as a regulated cell death (RCD) by Nomenclature Committee on Cell Death (NCCD). Peptide-treated OVCAR-8 cells indicated pyroptotic morphology. One of the pathways mediating pyroptosis is through cleavage of caspase-3.",
  "data": [
    {"substance": "KFFWWK", "values": [
      {"measurement": "toxicity to OVCAR-8 cells", "result": "toxicity"}
    ]}
  ]
}
